Tests used:
Jurkat [1] = experiment: Compound was assessed for NF-kB activity using human T cell leukemia Jurkat cells; more toxic; assay type: functional, cell-based
Jurkat [2] = experiment: Compound was assessed for NF-kB activity using human T cell leukemia Jurkat cells; Less toxic; assay type: functional, cell-based
Mus musculus = organism: Mus musculus; experiment: Compound was tested for antiarthritic effects on type-II collagen induced arthritis in DBA1/J mice; inhibited; assay type: functional, organism-based

| SMILES | Activity (Jurkat [1]) | Activity (Jurkat [2]) | Activity (Mus musculus) |
| --- | --- | --- | --- |
| O=C(NC1=CC(O)C2OC2C1=O)c1ccccc1O (stereo not drawn) | Toxic | – | – |
| O=C(NC1=CC(=O)[C@H]2O[C@H]2[C@H]1O)c1ccccc1O | – | Toxic | Inhibited |

Source: ChEMBL document CHEMBL1133347, “Synthesis of NF-kappaB activation inhibitors derived from epoxyquinomicin C” (Bioorg Med Chem Lett, 2000)
